According to the CheMixHub ionic liquid set:

Test: xn = mol fraction of the nth substance listed

C=C[n+]1ccn(CCCC)c1.N[C@@H](Cc1c[nH]cn1)C(=O)[O-] + O
101.3 kPa
Settings	electrical conductivity [S/m]	viscosity [mPa·s]
303.15 K, x1 = 0.3	3.56	8.1
303.15 K, x1 = 0.9	0.59	1179
323.15 K, x1 = 1	0.21	1418
333.15 K, x1 = 0.3	–	4.19
343.15 K, x1 = 0.7	–	29.04
353.15 K, x1 = 0.5	–	12.68

CC(=O)[O-].CCCC[n+]1ccn(C)c1 + O
Settings	viscosity [mPa·s]
293.15 K, 100 kPa, x2 = 0.1843	559
293.15 K, 100 kPa, x2 = 0.3889	298
293.15 K, 100 kPa, x2 = 0.5951	124.3
293.15 K, 100 kPa, x2 = 0.8004	32.1
298.15 K, 100 kPa, x2 = 0	595
298.15 K, 101 kPa, x1 = 0.03479	2.23
298.15 K, 101 kPa, x1 = 0.03897	2.35
298.15 K, 101 kPa, x1 = 0.04311	2.66
303.15 K, 100 kPa, x2 = 0	400
303.15 K, 100 kPa, x2 = 0.1843	262
303.15 K, 100 kPa, x2 = 0.3889	150
303.15 K, 100 kPa, x2 = 0.5951	68.8
303.15 K, 100 kPa, x2 = 0.8004	19.69
303.15 K, 101 kPa, x1 = 0.03479	2.18
303.15 K, 101 kPa, x1 = 0.03897	2.29
303.15 K, 101 kPa, x1 = 0.04311	2.63
308.15 K, 101 kPa, x1 = 0.03479	2.16
308.15 K, 101 kPa, x1 = 0.03897	2.25
308.15 K, 101 kPa, x1 = 0.04311	2.56
313.15 K, 100 kPa, x2 = 0	200
313.15 K, 100 kPa, x2 = 0.0171	138.1
313.15 K, 100 kPa, x2 = 0.1843	138.2
313.15 K, 100 kPa, x2 = 0.3889	85
313.15 K, 100 kPa, x2 = 0.5951	41.9
313.15 K, 100 kPa, x2 = 0.8004	13.12
313.15 K, 101 kPa, x1 = 0.03479	2.13
313.15 K, 101 kPa, x1 = 0.03897	2.22
313.15 K, 101 kPa, x1 = 0.04311	2.49
318.15 K, 101 kPa, x1 = 0.03479	1.74
318.15 K, 101 kPa, x1 = 0.03897	2.11
318.15 K, 101 kPa, x1 = 0.04311	2.29
323.15 K, 100 kPa, x2 = 0	111.7
323.15 K, 100 kPa, x2 = 0.1843	79.7
323.15 K, 100 kPa, x2 = 0.3889	51.8
323.15 K, 100 kPa, x2 = 0.5951	26.97
323.15 K, 100 kPa, x2 = 0.8004	9.09
323.15 K, 101 kPa, x1 = 0.03479	1.58
323.15 K, 101 kPa, x1 = 0.03897	2.07
323.15 K, 101 kPa, x1 = 0.04311	2.26
328.15 K, 101 kPa, x1 = 0.03479	1.51
328.15 K, 101 kPa, x1 = 0.03897	1.91
328.15 K, 101 kPa, x1 = 0.04311	2.02
333.15 K, 100 kPa, x2 = 0	67.3
333.15 K, 100 kPa, x2 = 0.01197	48.8
333.15 K, 100 kPa, x2 = 0.1843	48.6
333.15 K, 100 kPa, x2 = 0.3889	33.6
333.15 K, 100 kPa, x2 = 0.5951	18.26
333.15 K, 101 kPa, x1 = 0.03479	1.24
333.15 K, 101 kPa, x1 = 0.03897	1.86
333.15 K, 101 kPa, x1 = 0.04311	1.97
343.15 K, 100 kPa, x2 = 0	41.6
343.15 K, 100 kPa, x2 = 0.1843	32.4
343.15 K, 100 kPa, x2 = 0.3889	23.31
343.15 K, 100 kPa, x2 = 0.5951	13
353.15 K, 100 kPa, x2 = 0	27.86
353.15 K, 100 kPa, x2 = 0.1843	22.25
353.15 K, 100 kPa, x2 = 0.3889	16.58
353.15 K, 100 kPa, x2 = 0.5951	9.64
363.15 K, 100 kPa, x2 = 0	19.87
363.15 K, 100 kPa, x2 = 0.1843	15.93
363.15 K, 100 kPa, x2 = 0.5951	7.37
373.15 K, 100 kPa, x2 = 0	14.82
373.15 K, 100 kPa, x2 = 0.1843	11.94

CC(=O)[O-].C[NH+](C)C + O
298.15 K, 101 kPa
Settings	viscosity [mPa·s]
x1 = 0.5942	2.59
x1 = 0.8068	2.64
x1 = 0.8639	2.66

CC(O)C(=O)[O-].CN(C)CCOCC[NH+](C)C + O
Settings	viscosity [mPa·s]
298.15 K, 100 kPa, x1 = 0.06665	2.86

CCCCCCCCCCCC[N+](C)(C)CC.[Br-] + O
viscosity [mPa·s], 101 kPa
Settings	x1 = 3.604e-05	x1 = 9.009e-05	x1 = 0.0001441	x1 = 0.0001802	x1 = 0.0002702	x1 = 0.0003603	x1 = 0.0004503	x1 = 0.0005403
298.15 K	0.895	0.903	0.913	0.916	0.929	0.938	0.947	0.956
303.15 K	0.796	0.807	0.816	0.822	0.831	0.839	0.847	0.854
308.15 K	0.714	0.726	0.735	0.74	0.75	0.758	0.765	0.773
313.15 K	0.647	0.658	0.666	0.673	0.682	0.688	0.693	0.699
318.15 K	0.587	0.595	0.605	0.61	0.619	0.623	0.628	0.632

CCCC[N+]1(C)CCCC1.N#C[N-]C#N + O
100 kPa
Settings	viscosity [mPa·s]
298.15 K, x2 = 0.8348	8
318.15 K, x2 = 0.5802	9
323.15 K, x2 = 0.6452	7
333.15 K, x2 = 0.5238	7
338.15 K, x2 = 0.371	7.8
338.15 K, x2 = 0.3756	7.8

CCCC[n+]1cccc(C)c1.F[B-](F)(F)F + O
298.15 K, 101 kPa
Settings	electrical conductivity [S/m]
x1 = 0.0002144	0.107
x1 = 0.0004179	0.2
x1 = 0.0004845	0.232
x1 = 0.0007527	0.331
x1 = 0.001001	0.448
x1 = 0.001159	0.5
x1 = 0.00129	0.549
x1 = 0.001546	0.642
x1 = 0.001714	0.709
x1 = 0.001876	0.763
x1 = 0.002129	0.837
x1 = 0.002298	0.886
x1 = 0.002565	0.977
x1 = 0.002757	1.03
x1 = 0.002862	1.08
x1 = 0.003167	1.15
x1 = 0.003324	1.2

CCCn1cc[n+](C)c1.O=S(=O)([N-]S(=O)(=O)C(F)(F)F)C(F)(F)F + O
100 kPa, x2 = 0.272
Settings	viscosity [mPa·s]
308.15 K	18.83
318.15 K	13.95
323.15 K	12.19
343.15 K	7.64
353.15 K	6.25

CC[NH+](C)CC.O=S(=O)([O-])C(F)(F)F + O
101 kPa
Settings	viscosity [mPa·s]
293.15 K, x2 = 0.759	7.65
313.15 K, x2 = 0.037	25.8
333.15 K, x2 = 0.434	7.33
333.15 K, x2 = 0.759	2.81
333.15 K, x2 = 0.844	1.94
353.15 K, x2 = 0.434	4.89
353.15 K, x2 = 0.759	2.01

CC[NH+](C)CC.O=S(=O)([O-])C(F)(F)F + O + CC[NH+](C)CC.CS(=O)(=O)[O-]
viscosity [mPa·s], 101 kPa
Settings	x2 = 0.027, x1 = 0.973	x2 = 0.05, x1 = 0.717	x2 = 0.07, x1 = 0.498	x2 = 0.089, x1 = 0.309	x2 = 0.107, x1 = 0.143	x2 = 0.114, x1 = 0.069
293.15 K	53.3	78.1	101.7	116.8	125.2	128.3
313.15 K	25.8	34	40.9	44.4	45.8	46.1
333.15 K	14.6	17.9	20.4	21.4	21.6	21.7
353.15 K	9.18	10.7	11.74	12.07	12.03	12.06
